{"source": "patent US20240245800A1", "about": "“HIGHLY SPECIFIC RABBIT SINGLE -DOMAIN ANTIBODIES FOR DRUG DELIVERY IN IMMUNOTHERAPY APPLICATIONS” (TECHNOPHAGE, INVESTIGAÇÃO E DESENVOLVIMENTO EM …, priority 2021, published 2024)", "key": {"LN229 cell line": {"test_system": "LN229 cell line", "experiment": "BEB-glioblastoma (BEB-GBM) in vitro model: LN229 viability", "assay_type": "cell-based", "parameters": "dose or concentration left out as unconfirmed", "details": "PAN free added to apex, 24 h", "procedure": "FIG. 18. Activity of liposomal drug delivery in the BEB-Glioblastoma model, wherein an in vitro BEB-GBM model was developed to mimic the complexity of drug delivery to a brain tumour. This model combined a monolayer of bEnd.3, as the BBB barrier, and the LN229 cell line at the base as the glioblastoma tumour.\nFIG. 18B. PAN encapsulated RG3 and FC5 functionalized liposomes were analysed in terms of BEB translocation and delivery of PAN to a glioblastoma cell line and compared with non-functionalized unloaded liposomes (Control). […] The cytotoxic effect of PAN in LN229 was determined by adding WST-1 reagent. The values were obtained from duplicates of two independent experiments ([…])."}}}
{"smiles": "Cc1[nH]c2ccccc2c1CCNCc1ccc(/C=C/C(=O)NO)cc1", "note": "[PAN, panobinostat]", "values": [{"measurement": "effect on LN229 viability in BEB-GBM model", "setting": "LN229 cell line", "result": "no significant effect"}, {"measurement": "effect on BEB integrity in BEB-GBM model", "setting": "bEnd.3", "result": "no significant effect"}]}
